Values joined by “and” are separate entries in the source; they are usually repeats but may differ in a detail not shown here. Identical values can stand only once.
What was measured:
[1] = Tissue and blood metabolites of rats after acute AICAR injection; type: in vivo, rat; conditions: AICAR 1 mg/g s.c., 60 minutes following injection, mean ± SEM n=7
From the text: (§1) All procedures were approved by the Institutional Animal Care and Use Committee. Male Sprague-Dawley rats weighing 197±5 grams (Sasco, Wilmington, Mass. 01887) were housed in individual cages in a temperature (22-25 C.) and light-controlled (12:12-h light-dark cycle) room and were given food (Harlan Teklad rodent diet, Madison, Wis.) and water ad libitum. To determine acute in vivo effects of AICAR, a jugular catheter was installed and exteriorized on the back of the neck three days prior to the day of the experiment. This catheter was implanted for the purpose of allowing rapid anesthesia of the rat and rapid blood and tissue collection. Rats were then given AICAR (1 mg/g body weight) subcutaneously in sterile 0.9% NaCl or were given 0.9% NaCl (n=7 in each group). One hour following the subcutaneous injection of AICAR, rats were anesthetized by intravenous injection of pentobarbital (4.8 mg/100 g body weight). The epitrochlearis and gastrocnemius/plantaris muscles were quickly removed and rapidly frozen with stainless steel clamps at liquid nitrogen temperature. Blood was collected via the abdominal aorta and a perchloric acid extract was prepared (0.5 ml blood to 2.0 ml 10% HClO4), neutralized and utilized for analysis of glucose and lactate.
(§2) Muscles from rats killed 1 hour following injection of AICAR or saline were analyzed for AMPK, citrate-dependence of acetyl-CoA carboxylase, malonyl-CoA, glycogen, ZMP, ZTP, ATP, and ADP. Hassid, W Z. & S. Abraham Methods Enzymol. 3:35-36 (1957); McGarry, J. D. et al. J. Biol. Chem. 253:[…] (1978). Blood glucose and lactate were measured by enzymatic techniques. Bergmeyer, H. U., et al. D-Glucose determination with hexokinase and glucose-phosphate dehydrogenase. In: Methods of Enzymatic Analysis, edited by H. U. Bergmeyer. New York: Academic, 1196-1201 (1974); Gutmann I., & A. W. Wahlefeld. L-(+)-Lactate. Determination with lactate dehydrogenase and NAD. In: Methods of Enzymatic Analysis, edited by H. U. Bergmeyer. New York: Academic, 1464-1468 (1974).

AMPK [2] = assay: AMPK activity in muscles of rats following AICAR injection; type: in vivo, rat; conditions: for AMPK activity increase vs saline: 1 hour following AICAR 1 mg/g injection
From the text: as §1, §2
Referring to FIG. 1, the AMPK activity in epitrochlearis and gastrocnemius/plantaris muscles of rats 1 hour following injection with 1 mg/g body weight AICAR or with saline is shown. Values are means ±SEM. […] AMPK activity was increased 2.4 fold in gastrocnemius/plantaris muscles and 4 fold in the epitrochlearis muscles 1 hour following the AICAR injection.

acetyl-CoA carboxylase = assay: Citrate dependence of acetyl-CoA carboxylase in muscles of AICAR-injected rats; type: in vivo, rat; conditions: 1 hour following AICAR 1 mg/g
From the text: as §1
Muscles from rats killed 1 hour following injection of AICAR or saline were analyzed for AMPK, citrate-dependence of acetyl-CoA carboxylase, malonyl-CoA, glycogen, ZMP, ZTP, ATP, and ADP. Hassid, W Z. & S. Abraham Methods Enzymol. […] Blood glucose and lactate were measured by enzymatic techniques. […]
Referring to FIG. 2, the citrate dependence of acetyl-CoA carboxylase in gastrocnemius/plantaris muscles of rats 1 hour following injection with AICAR (1 mg/g body weight) or saline is illustrated. Standard errors were determined but are not shown. […] Because of the limited amount of tissue, the entire citrate activation curve could not be determined for epitrochlearis muscle, but the activity of ACC at a physiological concentration of citrate (0.2 mM) was reduced from 0.50±0.10 nmol/g/min to 0.10±0.03 nmol/g/min.

[3] = Preliminary time course of muscle ZMP after AICAR injection; type: in vivo, rat; conditions: AICAR 1 mg/g s.c., n=3, preliminary experiments
Experimental: (§3) To determine the effect of chronic activation of AMPK, rats were injected (between 8 and 10 am.) subcutaneously with AICAR (1 mg/g body weight) or saline vehicle for five days in succession. This dose was shown in preliminary experiments to increase ZMP levels in the muscle to 0.57±0.06 μmol/g after 15 min, to 0.79±0.06 μmol/g after 60 min, to 0.69±0.06 μmol/g after 90 min, and to 0.60±0.06 μmol/g after 120 minutes (n=3 at each time point). Beginning with the first injection, controls were pair fed with AICAR-injected rats. Saline injected controls ate 17±1 g and AICAR injected rats ate 18±1 g of food during the 24 hour period prior to blood and tissue collection. Rats were anesthetized by intraperitoneal injection of pentobarbital (22-25 hrs following the last AICAR injection) and epitrochlearis, and gastrocnemius/plantaris muscles were collected and frozen as described above. Muscles were kept under liquid nitrogen until analyzed.

GLUT4 = assay: Total GLUT4 protein (Western blot) in muscles after chronic AICAR injection; type: in vivo, rat
Experimental: as §3, with “This” for “To determine the effect of chronic activation of AMPK, rats were injected (between 8 and 10 am.) subcutaneously with AICAR (1 mg/g body weight) or saline vehicle for five days in succession. This”
(§4) Muscles from rats killed 22-25 hours following the fifth AICAR injection were analyzed for glycogen and GLUT4. For GLUT4 measurement muscle was ground to powder under liquid nitrogen. See Etgen, G. J., et al. Am. J. Physiol. […] Proteins of these homogenates were separated by SDS-PAGE using 10% resolving gels (Tris-HCl ready gels, BIO-RAD, Hercules, Calif.). […] Relative amounts of GLUT4 were then quantified using a Hewlett Packard ScanJet 6200C and SigmaGel software (SPSS, Inc, Chicago, Ill.). Total intensity of GLUT4 spots on the developed hyperfilm was expressed as a fraction of intensity shown by a GLUT4 standard run on the same gel. […]

hexokinase = assay: Hexokinase activity in muscles after 5 days of AICAR injections; type: in vivo, rat; conditions: 5 days AICAR 1 mg/g/d, both epitrochlearis and gastrocnemius/plantaris, p<0.001
Experimental: as §3
Hexokinase activity was determined spectrophotometrically at 30 C on 700×g supernatants of the same homogenate as was used for GLUT4 measurement Uyeda, K. & E. Racker, J Biol Chem 240:4682-4688 (1965).

[4] = Muscle glycogen and food intake after five daily AICAR injections; type: in vivo, rat; conditions: 24 hrs following the last of five daily AICAR injections; control 43±2
Experimental: as §3, with “Rats were anesthetized by intraperitoneal injection of pentobarbital (22-25 hrs following the last AICAR injection) and epitrochlearis, and gastrocnemius/plantaris muscles were collected and frozen as described above.” left out
as §4, with “GLUT4.” for “GLUT4. For GLUT4 measurement muscle was ground to powder under liquid nitrogen. See Etgen, G. J., et al. Am. J. Physiol.”

[5] = Tolerability of daily AICAR injections; type: in vivo, rat; conditions: rats 197±5 grams, 1 mg/g body weight daily
Experimental: ATP and ADP were not influenced by the injection with AICAR. ZTP increased from non-detectable levels to 1.2 μmol/g. […] Muscle glycogen and liver glycogen were not acutely influenced 60 minutes following a single injection of AICAR.

[6] = AICAR 0.25 mg/g body weight; normal (C57/BJ6), insulin deficient diabetic (C57/BJ6STZ) and insulin resistant diabetic (KKAy) mice; cited from earlier work
AMPK [7] = conditions: analogues of 5'-AMP; cited from earlier work
[8] = resting rats injected with AICAR

## NC(=O)c1ncn([C@@H]2O[C@H](CO)[C@@H](O)[C@H]2O)c1N [AICAR, 5-aminoimidazole-4-carboxamide ribonucleoside]
[1]; gastrocnemius/plantaris
  Muscle ADP: 0.97 ± 0.02 µmol/g
  Muscle ATP: 7.6 ± 0.1 µmol/g
  Muscle Glycogen: 44 ± 4 µmol/g
  Muscle Malonyl-CoA: 0.6 ± 0.1 nmol/g
  Muscle ZMP: 0.91 ± 0.02 µmol/g
  Muscle ZTP: 1.2 µmol/g and 1.18 ± 0.09 µmol/g
[1]
  Blodd Glucose: 5.6 ± 0.6 mM
  Blood Lactate: 6.8 ± 0.5 mM
  Liver Glycogen: 344 ± 44 µmol/g
AMPK [2]; epitrochlearis muscles
  AMPK activity increase vs saline: 4 fold
AMPK [2]; gastrocnemius/plantaris muscles
  AMPK activity increase vs saline: 2.4 fold
AMPK [2]; [8]
  Duration of increase in muscle AMPK activity: at least two
  Time to increase in muscle AMPK activity after injection: ≤ 15 min
acetyl-CoA carboxylase; epitrochlearis, saline 0.50±0.10
  Activity of ACC at physiological citrate (0.2 mM): 0.10±0.03 nmol/g/min
acetyl-CoA carboxylase; gastrocnemius/plantaris, saline 3.1±0.1
  ACC citrate activation constant (Ka): 13.0 ± 0.3 mM
acetyl-CoA carboxylase; gastrocnemius/plantaris, saline 60.1±1.3
  ACC maximal velocity (Vmax) as a function of citrate concentration: 32.4 ± 1.3 nmol/g/min
[3]; after 15 min
  ZMP level in muscle: 0.57 ± 0.06 µmol/g
[3]; after 60 min
  ZMP level in muscle: 0.79 ± 0.06 µmol/g
[3]; after 90 min
  ZMP level in muscle: 0.69 ± 0.06 µmol/g
[3]; after 120 minutes
  ZMP level in muscle: 0.60 ± 0.06 µmol/g
GLUT4; AICAR 1 mg/g/d for five days, vs saline, p<0.001 epitrochlearis, p<0.01 gastrocnemius
  GLUT4 in epitrochlearis and gastrocnemius/plantaris: marked increases
GLUT4; larger rats (350-450 grams), AICAR 0.5 mg/g body weight, n=5/group, control 0.32±0.05, preliminary experiments
  Total GLUT4: 0.76±0.08 arbitrary units
hexokinase
  Hexokinase activity increase over control values: approximately 2.8 fold
[4]
  Gastrocnemius/plantaris glycogen: 87±4 μmol glucose units/g
[5]
  Tolerance of injections: no apparent discomfort
[6]
  Duration of acute decrease in blood glucose: 4 to 6 h

## Nc1ncnc2c([C@@H]3O[C@H](COP(=O)(O)O)[C@@H](O)[C@H]3O)[nH]nc12 [Formycin A 5′-monophosphate]
AMPK [7]
  Potency of AMPK activation in vitro: less potently

## NC(=O)c1ncn([C@@H]2O[C@H](COP(=O)(O)O)[C@@H](O)[C@H]2O)c1N [ZMP]
AMPK [7]
  Potency of AMPK activation in vitro: less potently

## Nc1ncnc2c1ncn2[C@@H]1O[C@H](COP(N)(=O)O)[C@@H](O)[C@H]1O [adenosine 5′-phosphoramidate]
AMPK [7]
  Potency of AMPK activation in vitro: more potently

## Nc1ncnc2c1ncn2[C@@H]1O[C@H](COP(O)(O)=S)[C@@H](O)[C@H]1O [adenosine-5′-thiomonophosphate]
AMPK [7]
  Potency of AMPK activation in vitro: more potently

Reference: patent US20030212013A1, “Use of amp kinase activators for treatment type 2 diabetes and insulin resistance” (priority 2002, published 2003)
